This note sets out measurements from patent US11576979B2, “Pyrrolobenzodiazepine prodrugs and antibody conjugates thereof” (GENENTECH, INC., priority 2016, dated 2023).

Where two headings read alike, the source gives them in different places.

As a reminder, the IC50 is the concentration needed to halve the response being measured. The term EC50 denotes the concentration giving half of the maximal effect.

One experiment relates to HCT-116. The experiment in a line: CELLTITER GLO cell proliferation assay (Example 6). It is filed as cell-based. To be noted: Homo sapiens. The procedure: (§1) The toxicity of PBD monomer disulfide prodrugs and diaphorase prodrugs were evaluated against KPL-4, WSU-DLCL2, HCT-116, HCC1395 and Jurkat cell cultures. […] KPL-4 cells further have a high expression of DTD on the order of about 839 nRPKM (where nRPKM refers to normalized reads per Kb of transcript length per million mapped read).
(§2) Potency of the disulfide and DT-diaphorase prodrugs was measured by a cell proliferation assay employing the following protocol (CELLTITER GLO™ Luminescent Cell Viability Assay, Promega Corp.). First, an aliquot of 40 ul of cell culture containing about 8000 cells of WSU-DLCL2 cells (low NQO1 gene and GSH level), 4000 cells of KPL-4 (high NQO1 gene and GSH level), HCT-116 cells, HCC1395 cells or Jurkat cells in RPMI-1640 culture medium (supplemented with 10% fetal bovine serum, 2 mM glutamine, 50 uM cystine, and 0.015 g/L L-methionine) was deposited in each well of a 384-well flat clear bottom white polystyrene tissue culture-treated microplates (Corning, N.Y.). Second, control wells were prepared containing medium with and without cells. Third, compounds with and without disulfide or DT-diaphorase prodrugs (n=3) were added to the experimental wells using ECHO acoustic liquid handling technology (Labcyte Inc, Sunnyvale, Calif.) to create a 10-point dose-response curve in triplicate with 1:3× serial dilution. Fourth, cells were cultured in a humidified incubator set at 37° C. and maintaining an atmosphere of 5% CO2. Fifth, the plates were equilibrated to room temperature for approximately 30 minutes. Sixth, a volume of CELLTITER GLO™ Reagent equal to the volume of cell culture medium present in each well was added. Seventh, the contents were mixed for 10 minutes on an orbital shaker in the dark to induce cell lysis. Eighth, the plate was incubated at room temperature for 30 minutes to stabilize the luminescence signal. Ninth, luminescence was recorded and reported in graphs as % activity where RLU (relative luminescence units) was normalized to controls (no compound control minus no cell control). Tenth, data was plotted as individual points for each replicate (n=3) for each antibody as the mean of luminescence for each set of replicates, with standard deviation error bars.
(In ATP-based viability assays light output follows the ATP content of the culture.)

For the next experiment, the system named is KPL-4. The experiment in a line: CELLTITER GLO cell proliferation assay (Example 6). To be noted: data in parenthesis = repeat evaluations. It is filed as cell-based. The procedure: as §1, §2
The next experiment concerns WSU-DLCL2. The experiment in a line: CELLTITER GLO cell proliferation assay (Example 6). It is filed as cell-based. To be noted: data in parenthesis = repeat evaluations. As for the experimental part:
as §1, §2

The next experiment has as its system KPL-4 Cell line. The experiment in a line: Cell viability, DTD-activated quinone prodrugs (Example 15). It is filed as cell-based. As for the experimental part: (§3) The toxicity of PBD dimer diaphorase prodrug 1, PBD monomer diaphorase prodrug 2, PBD dimer control 1 and PBD monomer control 1 were evaluated against KPL-4 and WSU cell lines for cell viability. The KPL-4 cell line is was a high DTD cell line characterized by NQO1 nRPKM of 839 and the WSU cell line was a low DTD cell line characterized by a NQO1 nRPKM of 1.36. The IC50 ratios are based on the prodrug IC50 value relative to the PBD dimer control.

The next experiment deals with WSU Cell line. Described as above. It is filed as cell-based. The procedure: as §3
For experiment [1], the target named is T1, DT Diaphorase (Homo sapiens, UniProt P15559).
T1 construct: purchased Sigma D1315
T1 sequence (P15559 whole entry): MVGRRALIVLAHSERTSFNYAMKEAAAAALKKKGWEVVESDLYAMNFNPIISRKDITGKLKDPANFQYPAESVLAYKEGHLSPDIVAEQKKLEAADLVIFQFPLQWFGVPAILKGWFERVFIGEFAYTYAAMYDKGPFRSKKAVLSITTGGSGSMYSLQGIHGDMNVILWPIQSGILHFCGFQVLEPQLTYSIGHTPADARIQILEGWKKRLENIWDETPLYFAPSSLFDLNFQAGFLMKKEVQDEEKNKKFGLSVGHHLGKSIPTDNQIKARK
The experiment in a line: in vitro DT diaphorase activated drug release assay (NADPH depletion). It is filed as biochemical. To be noted: in <5 min. The procedure: An in vitro DT diaphorase activated drug release assay was used to measure NADPH depletion. DT diaphorase activated release of Norfloxacin and Payload (PBD) was measured by the in vitro depletion of NADPH. The assay method was modified from the absorbance measurement of NADPH at A340 (Osman et. al, Chemico-Biological Interactions 147 (2004) 99-108) due to the interference of compounds. The depletion of NADPH was measured by monitoring the decrease of fluorescence intensity of NADPH at 480 nm after being excited at […]. […] Prior to assay, dilute the stock to 1 mM as the 5× working solution; (5) DT Diaphorase specific Inhibitor: prepare 40 mM stock of Dicumarol (Sigma, Cat #M1390-5G, MW=336.29) in 0.13 N NaOH, stored at 4° C. Dilute the stock to 250 uM as the 5× working solution; (6) Compounds: dilute the Norfloxacin and PBD conjugated compounds in assay buffer to 250 uM as the 5× working solution; and (7) 384 well black plate with clear bottom. For the assay procedure: (1) The reaction mix containing 0.5 uM DT-D, 50 uM compound, […] NADPH was set up in a 384 well plate at 50 ul/well. For the control with DT Diaphorase inhibitor, Dicumarol was added in the reaction mix at final 50 uM for each compound. Reaction mix containing NADPH and compound only was also added as the baseline controls. The DT Diaphorase was added in the last step; and (2) The reaction mixes were incubated at room temperature for 5, 30, 90 min. The fluorescence intensity (RFU) of DNAPH was recorded on M1000 plate reader (Tecan) with excitation at 340 nm and emission at 480 nm. For data analysis, data was analyzed and plotted using Prism GraphPad 6. The depletion of NADPH was calculated by the formula below at reaction time point at 90 min wherein: % NADPH depletion=[…].

A further experiment has as its system HCC1395. The experiment in a line: CELLTITER GLO cell proliferation assay (Example 6). It is filed as cell-based. To be noted: Homo sapiens, Table 4, read-out: IC50 potency HCC1395. The procedure:
as §1, §2

The subject of another experiment is Jurkat. The experiment in a line: CELLTITER GLO cell proliferation assay (Example 6). It is filed as cell-based. To be noted: Homo sapiens, Table 4, read-out: IC50 potency Jurkat. As for the experimental part:
as §1, §2

Experiment [2] deals with MDA-MB-453 tumor cell line. Nature of the experiment: in vitro tumor cell killing assay, 3 days (Example 13). It is filed as cell-based. To be noted: Homo sapiens, MDA-MB-453, 72 h. As for the experimental part: The toxicity of various PBD monomer and dimer boronic acid prodrug compounds were evaluated for cell toxicity. In the in vitro tumor cell killing assay, the cells were added to each well of 96-well microtiter plates at 8,000 cells per well and were incubated overnight at 37° C. in a humidified atmosphere of 5% CO2. The cells were exposed to various concentration of the indicated prodrug, positive control and negative control compounds. Where silvestrol was evaluated, a 1:3 serial dilution was used. After incubation for 3 days, Cell titer-Glo reagent (Promega, Madison Wis.) was added to the wells at 100 μL per well followed by a 10-minute incubation at room temperature, and the luminescent signal was measured using a Packard/Perkin-Elmer TopCount.
The toxicity of PBD monomer boronic acid prodrug 1 was evaluated against MDA-MB-453 tumor cell line for cell viability. PBD monomer control 1 was used as a positive control and PBD monomer control 2 was used as a negative control. The toxicity study was repeated wherein the PBD prodrug and controls were administered in combination with silvestrol. FIG. 15C depicts a plot of MDA-MB-453 cell kill versus drug concentration in μM three days after exposure to: (i) a PBD monomer control; (ii) a PBD monomer control having a benzyl formate moiety at the N10 PBD position; and (iii) a PBD monomer boronic acid prodrug. […]

For experiment [3], the target named is T1, DT Diaphorase. Nature of the experiment: DT diaphorase activated payload release (LC-MS MRM quant). It is filed as biochemical. To be noted: after 90 minutes incubation. The procedure:
In addition to the potency evaluation, the release of PBD dimer diaphorase prodrug 1 was evaluated. The release was measured to be 12% after 90 minutes incubation according to the following method. First, a master mix reaction was prepared containing 0.5 uM of the […], […] NADPH […]. Second, the reaction mix was incubated at room temperature for 5, 30, 90 min. […] Finally, data was analyzed using MultiQuant analysis software and standards were calculated using GraphPad Prism 6 linear regression fit.
An in vitro DT diaphorase activated drug release assay was used to measure NADPH depletion. DT diaphorase activated release of Norfloxacin and Payload (PBD) was measured by the in vitro depletion of NADPH. The assay method was modified from the absorbance measurement of NADPH at A340 (Osman et. al, Chemico-Biological Interactions 147 (2004) 99-108) due to the interference of compounds. The depletion of NADPH was measured by monitoring the decrease of fluorescence intensity of NADPH at 480 nm after being excited at 340 nM. […] The fluorescence intensity (RFU) of DNAPH was recorded on M1000 plate reader (Tecan) with excitation at 340 nm and emission at 480 nm. For data analysis, data was analyzed and plotted using Prism GraphPad 6. […]

Turning to `C=C1C[C@H]2C(O)N(C(=O)OCc3cc4c(n3C)C(=O)C=C(OC)C4=O)c3cc(OC)c(OC)cc3C(=O)N2C1` (stereo partly shown) [PBD monomer diaphorase prodrug 2], the IC50 worked out at 223 nM in the experiment with HCT-116 (HCT-116, read-out: IC50 potency HCT-116); 344 nM in the experiment with KPL-4 (KPL4, read-out: IC50 potency KPL-4, Table 4); 355 nM in the experiment on KPL-4 (read-out: IC50 potency KPL-4, Table 4); 575 nM with WSU-DLCL2 (Homo sapiens, WSUDLCL2, read-out: IC50 potency WSU-DLCL2, Table 4); 288 nM in the experiment with WSU-DLCL2 (read-out: IC50 potency WSU-DLCL2, Table 4); 344 nM with KPL-4 Cell line (KPL4, read-out: IC50 Potency (nM)). Moreover, the IC50 in the experiment with WSU Cell line (read-out: IC50 Potency (nM)) amounted to 575 nM. The “NADPH Dep.” value on DT Diaphorase [1] is on record as above 90% in.
`C=C1C[C@H]2C=Nc3cc(OCCCCCOc4cc5c(cc4OC)C(=O)N4CC(=C)C[C@H]4C(O)N5C(=O)OCc4ccc(NC(=O)OCc5cc6c(n5C)C(=O)C=C(OC)C6=O)cc4)c(OC)cc3C(=O)N2C1` (stereo partly shown) [PBD dimer diaphorase prodrug 2]: the IC50 amounted to 9.84 nM in the experiment with HCC1395; 1.25 nM in the experiment on Jurkat; 10.1 nM in the experiment on KPL-4 (KPL4, Table 4, read-out: IC50 potency KPL-4); 0.8 nM with WSU-DLCL2 (Homo sapiens, WSUDLCL2, Table 4, read-out: IC50 potency WSU-DLCL2).
Regarding `C=C1C[C@H]2C(O)N(C(=O)OCc3ccc(B4OC(C)(C)C(C)(C)O4)cc3)c3cc(OC)c(OC)cc3C(=O)N2C1` (stereo partly shown) [PBD monomer boronic acid prodrug 1], the EC50 in experiment [2] turned out to be 1850 nM.
As for `C=C1C[C@H]2C=Nc3cc(OCCCCCOc4cc5c(cc4OC)C(=O)N4CC(=C)C[C@H]4C(O)N5C(=O)OCc4cc5c(n4C)C(=O)C=C(OC)C5=O)c(OC)cc3C(=O)N2C1` (stereo partly shown) [PBD dimer diaphorase prodrug 1], the IC50 in the experiment with HCC1395 turned out to be 14.2 nM; in the experiment with HCT-116 (HCT-116, Table 4, read-out: IC50 potency HCT-116) it was 21.3 nM; in the experiment with Jurkat, 2.05 nM; in the experiment on KPL-4 Cell line (KPL4, KPL-4 Cell line (high DTD), Table 10, read-out: IC50 Potency), 35.5 nM; with WSU Cell line (WSU Cell line (low DTD), Table 10, read-out: IC50 Potency), 8.56 nM. The molecule further had a release at DT Diaphorase [3] of 12%.
